Source: US5470737A, “Stably-transformed cells expressing human thiopurine methyltransferase” (priority 1994, dated 1995)
“Also recorded” adds a separate entry of the source. Read-outs that look alike come from different tables or passages of the source.

What was measured:
[1] = biological target: T1, TPMT expressed in COS-1 cells transfected with T84 TPMT cDNA (Homo sapiens, UniProt P51580); test: Panel of methyltransferase inhibitors and ions, COS-1 cells transfected with T84 TPMT cDNA; type: biochemical
T1 construct: digested with SstI to excise the coding region, the 5'-untranslated region and a portion (ca. 600 nucleotides) of the 3'-untranslated region; expressed in transfected cells; host or cells: COS-1 (simian), vector P91023(B)
T1 sequence (P51580 1-245): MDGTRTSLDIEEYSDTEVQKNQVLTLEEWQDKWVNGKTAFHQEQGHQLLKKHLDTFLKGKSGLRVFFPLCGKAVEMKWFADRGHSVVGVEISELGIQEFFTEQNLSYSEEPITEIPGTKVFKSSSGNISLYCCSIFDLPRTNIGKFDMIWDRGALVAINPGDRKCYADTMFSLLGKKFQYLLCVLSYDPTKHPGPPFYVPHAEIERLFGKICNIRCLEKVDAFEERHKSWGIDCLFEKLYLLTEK
Experimental: (§1) TPMT activity in renal tissue was measured by the method of R. M. Weinshilboum et al., in Clin. Chim. Acta, 85, 323 (1978) as modified by L. C. Woodson et al., Biochem. Pharmacol., 32, 819 (1983) to assay the enzyme in human kidney preparations. […] Assay conditions for the measurement of TPMT in T84 human colon carcinoma cells and in COS-1 cells were identical with those used to measure the enzyme activity in human renal tissue. One unit of TPMT activity represented the formation of 1 nmol of 6-MMP per hr of incubation at 37° C.
Simian COS-1 cells were then plated in 100-mm dishes at a density of 1.5-1.8×10^6 cells/dish in DMEM with 10% fetal calf serum, and were allowed to grow overnight. Three dishes of cells were used for each transfection. Purified "sense" plasmid vector (0.5 μg) was mixed with DEAE-dextran and DMEM, and the mixture was added to the cell culture dishes, following the procedures of J. H. McCutchan et al., J. Natl. Cancer Inst., 41, 351 (1988) and R. J. Kaufman et al., Mol. Cell. Biol., 9, 946 (1989). Control cells were treated with no DNA, with expression vector alone, or with constructs that contained the cDNA clone in an antisense orientation. After 1 hr, the DNA-DEAE-dextran solution was replaced for 2 min with DMEM that contained 10% dimethylsulfoxide, followed by incubation for 2 hr in 0.1 mM chloroquine in DMEM following the procedure of H. Luthman et al., Nucl. Acids Res., 11, 1295 (1983). Cells were then grown for 40-42 hr in DMEM with 10% fetal calf serum. The cells from each transfection were harvested and pooled, cell pellets were washed in 5 ml of PBS, and the cell pellets were homogenized for 30 sec in 2 ml of 5 mM potassium phosphate buffer, pH 7.5. Homogenates were centrifuged at 15,000×g for 15 min at 4° C., supernatants from that step were centrifuged at 100,000×g for 1 hr at 4° C., and 0.25 μl aliquots of 100,000×g supernatant preparations were then assayed for transient expression of TPMT enzymatic activity.

[2] = biological target: T2, T84 cell TPMT (Homo sapiens, UniProt P51580); test: Panel of methyltransferase inhibitors and ions, T84 cell 100,000×g supernatant; type: biochemical
T2 construct: Cytosol from T84 cells did contain TPMT enzymatic activity; host or cells: T84 human colon carcinoma cells
T2 sequence (P51580 1-245): T1 sequence (P51580 1-245)
Experimental: (§2) TPMT activity in renal tissue was measured by the method of R. M. Weinshilboum et al., in Clin. Chim. Acta, 85, 323 (1978) as modified by L. C. Woodson et al., Biochem. Pharmacol., 32, 819 (1983) to assay the enzyme in human kidney preparations. […] Ado-Met as the methyl donor. Assay conditions for the measurement of TPMT in T84 human colon carcinoma cells and in COS-1 cells were identical with those used to measure the enzyme activity in human renal tissue. One unit of TPMT activity represented the formation of 1 nmol of 6-MMP per hr of incubation at 37° C.
T84 human colon carcinoma cells (American Type Culture Collection, Rockville, Md.) were grown to confluence in an equal volume mixture of Dulbecco's modified Eagle's medium (DMEM) and Ham's F12 media with 5% fetal calf serum. The cells were then harvested, cell pellets were washed in phosphate buffered saline (PBS), and the pellets were homogenized for 30 sec in 1 ml of 5 mM potassium phosphate buffer, pH 7.5, with a Polytron homogenizer. Homogenates of the cells were centrifuged at 100,000×g for 1 hr at 4° C., and the supernatant was used to assay TPMT activity and to determine selected biochemical properties of the enzyme.
(§3) Finally, the response of the TPMT expressed in COS-1 cells to a panel of methyltransferase inhibitors and ions was compared with that of TPMT activity in human kidney 100,000×g supernatant, partially purified human kidney Peak I TPMT and T84 cell TPMT (Table 3).

[3] = biological target: T3, human kidney TPMT Peak I (Homo sapiens, UniProt P51580); test: Panel of methyltransferase inhibitors and ions, human kidney Peak I TPMT; type: biochemical
T3 construct: Human renal tissue contains two isoforms of TPMT, Peak I and Peak II, that can be separated by DEAE ion exchange chromatography; from tissue; host or cells: human kidney, DEAE Peak I, gel filtration
T3 sequence (P51580 1-245): T1 sequence (P51580 1-245)
From the text: Human renal tissue contains two isoforms of TPMT, Peak I and Peak II, that can be separated by DEAE ion exchange chromatography as reported by J. A. Van Loon et al., Biochem. Genet., 20, 637 (1982). The two isoforms were separated by DEAE ion exchange chromatography, and the Peak I enzyme was then purified by gel filtration chromatography performed with Sephadex G-100 superfine as described by J. A. Van Loon et al., cited above. In some experiments, hydroxylapatite chromatography performed as described by J. A. Van Loon et al., in Biochem. Pharmacol., 44, 775 (1992) was added as a third purification step.
as §2, §3

[4] = biological target: T4, TPMT, human kidney 100,000×g supernatant (Homo sapiens, UniProt P51580); test: Panel of methyltransferase inhibitors and ions, human kidney 100,000×g supernatant; type: biochemical
T4 construct: renal tissue was homogenized in 5 mM potassium phosphate buffer, pH 7.5, with a Polytron homogenizer, and a 100,000×g supernatant was prepared; from tissue; host or cells: human kidney (renal tissue)
T4 sequence (P51580 1-245): T1 sequence (P51580 1-245)
Experimental: Renal tissue was obtained either during autopsy or from patients undergoing clinically indicated nephrectomies. Hepatic tissue was obtained from patients who underwent clinically indicated partial hepatectomies for the removal of primary or metastatic hepatic tumors. All tissue was obtained under guidelines approved by the Mayo Clinic Institutional Review Board. Macroscopically normal tissue was stored at -80° C., conditions under which TPMT activity is stable (C. L. Szumlanski et al., Pharmacogenetics, 2, 148 (1992); J. A. Van Loon et al., Drug Met. Disposit., 18, 632 (1990)). Prior to enzyme purification, renal tissue was homogenized in 5 mM potassium phosphate buffer, pH 7.5, with a Polytron homogenizer, and a 100,000×g supernatant was prepared as described by L. C. Woodson et al., Biochem. Pharmacol., 32, 819 (1983). Amino acid sequence information was obtained with TPMT purified from human renal tissue--a tissue with a high specific activity for the enzyme.
as §2, §3

[5] = biological target: T5, TPMT (Homo sapiens, UniProt P51580); test: Inhibition of TPMT, all sources of enzyme (summary in words); type: biochemical
T5 construct: T84 cDNA transiently expressed in COS-1 cells, plus native human kidney 100,000×g supernatant, partially purified kidney Peak I and T84 cell enzyme
T5 sequence (P51580 1-245): T1 sequence (P51580 1-245)
From the text: as §3
As shown by the data in Table 3, the results were nearly identical for all sources of enzyme and each activity was inhibited by the TPMT reaction products, Ado-Hcy and 6-MMP. However, the enzyme was not affected by inhibitors of other methyltransferase enzymes.

[6] = biological target: T6, human kidney TPMT (Homo sapiens, UniProt P51580); conditions: cited from earlier work
T6 construct: to assay the enzyme in human kidney preparations; host or cells: human kidney
T6 sequence (P51580 1-245): T1 sequence (P51580 1-245)

[7] = test system: histamine N-methyltransferase (HNMT); conditions: cited from earlier work
[8] = test system: catechol O-methyltransferase (COMT); conditions: cited from earlier work
[9] = test system: thiol methyltransferase (TMT); conditions: cited from earlier work
[10] = test system: patients with genetically low or undetectable RBC TPMT activity; conditions: patients lacking or with low TPMT activity; cited from earlier work
[11] = test system: TPMT; conditions: cited from earlier work
[12] = substrate: C[S+](CC[C@H](N)C(=O)O)C[C@H]1O[C@@H](n2cnc3c(N)ncnc32)[C@H](O)[C@@H]1O; test: purified protein, by the assay type; conditions: other: T84 cells; 3.4 mM 6-MP, Ado-Met 0.78 to 25 μM; 37.0 °C
[13] = substrate: Sc1ncnc2nc[nH]c12; test: purified protein, by the assay type; conditions: other: T84 cells; 25 μM Ado-Met, 6-MP 0.11 to 6.8 mM; 37.0 °C
[14] = biological target: T2, T84 cell TPMT; test: TPMT biochemical characteristics: pH optimum and apparent Km, T84 cells; conditions: 150 mM potassium phosphate buffer, seven pH values 5.5 to 8.5
Experimental: as §1

[15] = tissue stored at -80° C.; cited from earlier work
[16] = read-out: Activity Remaining, %

## CSc1ncnc2nc[nH]c12 [6-MMP, 6-methylmercaptopurine]
[1]; COS-1 cells transfected with T84 TPMT cDNA, 5 mM
  remaining activity at 5000 µM: 29%
[2]; T84 cell 100,000×g supernatant, 5 mM
  remaining activity at 5000 µM: 27%
[3]; human kidney TPMT Peak I, 5 mM
  remaining activity at 5000 µM: 30%
[4]; human kidney 100,000×g supernatant, 5 mM
  remaining activity at 5000 µM: 26%
[5]
  effect on TPMT activity (in words): inhibited

## Nc1ncnc2c1ncn2[C@@H]1O[C@H](CSCC[C@H](N)C(=O)O)[C@@H](O)[C@H]1O [Ado-Hcy, S-adenosyl-L-homocysteine]
[1]; [16]
  remaining activity at 100 µM: 5%
[2]; [16]
  remaining activity at 100 µM: 5%
[3]; [16]
  remaining activity at 100 µM: 5%
[4]; [16]
  remaining activity at 100 µM: 5%
[5]
  effect on TPMT activity (in words): inhibited

## C[S+](CC[C@H](N)C(=O)O)C[C@H]1O[C@@H](n2cnc3c(N)ncnc32)[C@H](O)[C@@H]1O (stereo partly drawn) [Ado-Met, S-adenosyl-L-methionine]
[6]; read-out: Apparent Km value for Ado-Met
  Km: 2.7 µM

## CCN(CC)Cc1cc(Nc2ccnc3cc(Cl)ccc23)ccc1O [Amodiaquine]
[7]
  inhibition of histamine N-methyltransferase (in words): an inhibitor of histamine N-methyltransferase
[1]; COS-1 cells transfected with T84 TPMT cDNA, 1 mM, read-out: Activity Remaining, %
  remaining activity at 1000 µM: 95%
[2]; T84 cell 100,000×g supernatant, 1 mM, read-out: Activity Remaining, %
  remaining activity at 1000 µM: 96%
[3]; human kidney TPMT Peak I, 1 mM, read-out: Activity Remaining, %
  remaining activity at 1000 µM: 90%
[4]; human kidney 100,000×g supernatant, 1 mM, read-out: Activity Remaining, %
  remaining activity at 1000 µM: 97%
[5]
  effect on TPMT activity (in words): not affected

## [Ca+2].[Cl-].[Cl-] [CaCl2]
[1]; COS-1 cells transfected with T84 TPMT cDNA, 1 mM
  Activity Remaining, %: 96%
[2]; T84 cell 100,000×g supernatant, 1 mM
  Activity Remaining, %: 95%
[3]; human kidney TPMT Peak I, 1 mM
  Activity Remaining, %: 97%
[4]; human kidney 100,000×g supernatant, 1 mM
  Activity Remaining, %: 96%
[5]
  effect on TPMT activity (in words): not affected
[8]
  inhibition of catechol O-methyltransferase (in words): an inhibitor of catechol O-methyltransferase

## CC(N)c1cccc(Cl)c1Cl (stereo not drawn) [DCMB, 2,3-dichloro-α-methylbenzylamine]
[1]; [16]
  remaining activity at 1000 µM: 95%
[2]; [16]
  remaining activity at 1000 µM: 99%
[9]
  inhibition of thiol methyltransferase (in words): inhibitors of thiol methyltransferase
[3]; [16]
  remaining activity at 1000 µM: 95%
[4]; [16]
  remaining activity at 1000 µM: 95%
[5]
  effect on TPMT activity (in words): not affected

## CCCC(C(=O)OCCN(CC)CC)(c1ccccc1)c1ccccc1 [SKF-525A]
[1]; COS-1 cells transfected with T84 TPMT cDNA, 0.5 mM
  remaining activity at 500 µM: 101%
[2]; T84 cell 100,000×g supernatant, 0.5 mM
  remaining activity at 500 µM: 102%
[9]
  inhibition of thiol methyltransferase (in words): inhibitors of thiol methyltransferase
[3]; human kidney TPMT Peak I, 0.5 mM
  remaining activity at 500 µM: 98%
[4]; human kidney 100,000×g supernatant, 0.5 mM
  remaining activity at 500 µM: 107%
[5]
  effect on TPMT activity (in words): not affected

## Cn1cnc([N+](=O)[O-])c1Sc1ncnc2nc[nH]c12 [azathioprine]
[10]
  risk of myelosuppression (in words): even more at risk for the occurrence of severe myelosuppression; also recorded: greatly increased risk for the development of life-threatening thiopurine-induced myelosuppression
[11]
  substrate for TPMT (in words): substrates for TPMT

B1: T84 cell TPMT (Homo sapiens) (protein)
chain: T1 sequence (P51580 1-245)
[12]
  Km: 5.1 µM
[13]
  Km: 710 µM
[14]
  pH Optimum: 6.5
[6]
  pH Optimum: 6.5
[15]
  stability of TPMT activity (in words): stable
